Test results published in US6335363B1, “Use of inhibitors of the KQTI channel and methods of controlling and treating diseases caused by helminths and ectoparasites” (Aventis Pharma Deutschland GmbH, priority 1998, dated 2002).

The molecules below were run on KQT1 channel (assay: Activity against KQT1 in Xenopus oocytes (two-microelectrode voltage clamp)). Conditions: KQT1 expressed in Xenopus oocytes; slowly activated potassium current.
Format: cell-based, Caenorhabditis elegans
Set-up: dose or concentration left out as unconfirmed
Description: To test the ct of IKS channel blockers on the KQT1 channel, electrophysiological studies were carried out on Xenopus oocytes which express the KQT1 channel (specific IKS channel of the nematode Caenorhabditis elegans). An adult female frog (Xenopus laevis) was […] oocytes of all development stages were removed from the ovarian bags. Oocytes of the development stages V and VI were selected; using a nanoliter injector mounted in a micromanipulator, 10 ng of the KQT1-specific m-RNA were injected into each oocyte. After 1-4 days, sufficient KQT1 channels were expressed for it to be possible to measure the corresponding currents. For measuring the slowly activated potassium currents under constant intracellular conditions, the two-microelectrode voltage clamp method was employed. This method is based on operating with 2 intracellular microelectrodes; the first electrode measures the membrane potential against a reference electrode, the second electrode is used to inject current which is necessary to maintain a desired potential. During the measurement, the holding potential was adjusted to -80 mV, which corresponds to the open-circuit membrane potential. The electrophysiological measuring stand comprised a vibration-damped experiment table on which were mounted a purpose-made measuring chamber, 2 micromanipulators, in each case with a preamplifier and a holder for injection microelectrodes, and a stereomicroscope. The complete measuring stand was surrounded by a Faraday cage to minimize electrical disturbances during the measurement. During the measurement, the oocyte was suspended in a solution of ND96 buffer. To activate the voltage-dependent IKS channel, the oocyte membrane was depolarized by a voltage jump from the holding potential (-80 mV) to 0 mV, and this state was maintained for 10 seconds before the holding potential was reestablished. The time profile of the measuring protocol was repeated every 45 s. During the depolarization phase, the slowly activated potassium current was measured.
Molecule `CCS(=O)(=O)N(C)C1CCCCc2ccc(F)cc21` (stereo not drawn) has an Inhibition of 78%.
For `CCS(=O)(=O)N(CC(=O)NCCN(C)C)C1CC(C)(C)Oc2ccc(F)cc21` (stereo not drawn) [N-(2-DIMETHYLAMINO- ETHYL)-2-[ETHANE- SULFONYL-(6-FLUORO- 2,2-DIMETHYL-CHROMAN- 4-YL)-AMINO]- ACETAMIDE], the Inhibition was 22%.
Molecule `CN(C1=CC(C)(C)Oc2ccc(OCCCC(F)(F)F)cc21)S(C)(=O)=O` [N-[2,2-DIMETHYL-6-(4,4,4- TRIFLUOROBUTOXY)-2H- CHROMEN-4-YL]-N- METHYL- METHANESULFONAMIDE] has an Inhibition of 92%.
In the case of `CCS(=O)(=O)N(CCCC(F)(F)F)C1CC(C)(C)Oc2cc(Cl)c(Cl)cc21` (stereo not drawn) [6,7-DICHLORO-4-[N- ETHYLSULFONYL-N- (4,4,4-TRIFLUORO- BUTYL)AMINO]-2,2- DIMETHYLCHROMANE], the Inhibition is reported as 88%.
Work on `CCS(=O)(=O)N(C)C1CC(C)(C)Oc2cc(OC)c(OC)cc21` (stereo not drawn) [4-N-ETHYLSULFONYL-N- METHYLAMINO-6,7 DIMETHOXY-2,2- DIMETHYLCHROMANE] yielded an Inhibition of 30%.
`CCS(=O)(=O)N(CC(=O)NCCN(C)Cc1ccccc1)C1CC(C)(C)Oc2ccc(F)cc21` (stereo not drawn) [N-[2-(BENZYL-METHYL- AMINO)-ETHYL]-2- [ETHANESULFONYL-(6- FLUORO-2,2-DIMETHYL- CHROMAN-4-YL)-AMINO]- ACETAMIDE] was tested, and the Inhibition was 36%.
`CCS(=O)(=O)N(CC(=O)Nc1ccncc1)C1CC(C)(C)Oc2ccc(F)cc21` (stereo not drawn) [2-[ETHANESULFONYL-(6- FLUORO-2,2-DIMETHYL- CHROMAN-4-YL)-AMINO]- N-PYRIDIN-4-YL- ACETAMIDE] was tested, and the Inhibition was 35%.
Molecule `CCS(=O)(=O)N(C)C1CC(C)(C)Oc2cc(Cl)c(F)cc21` (stereo not drawn) [7-CHLORO-4-N- ETHYLSULFONYL-N- METHYLAMINO-6- FLUORO-2,2- DIMETHYLCHROMANE] has an Inhibition of 89%.
In the case of `CCS(=O)(=O)N(C)C1c2cc(C#N)ccc2OC(C)(C)C1O` (stereo not drawn) [6-CYANO-4-TRANS-(N- ETHYLSULFONYL-N- METHYLAMINO)-3 HYDROXY-2,2- DIMETHYLCHROMANE], the Inhibition is reported as 40%.
